# In patent publication US20140357512A1, “HISTONE DEACETYLASE (HDAC) BIOMARKERS IN MULTIPLE MYELOMA” (priority 2013, published 2014):
# Tested on: human myeloma cell line MM.1S
# Experiment: SILAC acetylated-lysine peptide profiling, HDAC inhibitor vs DMSO (light/heavy ratio)
# Format: cell-based
# Source text: An embodiment of the invention comprises utilizing the SILAC method in order to quantitate changes in protein expression between two or more populations of cells. The SILAC method is a technique based on mass spectrometry that detects differences in protein abundance among samples using non-radioactive isotopic labeling. The SILAC method is known in the art, and described in detail in Ong et al., “Stable Isotope Labeling by Amino Acids in Cell Culture, SILAC, as a Simple and Accurate Approach to Expression Proteomics”, Molecular & Cellular Proteomics, vol. 1, pp. 376-386 (2002), which is incorporated herein by reference in its entirety.
# Briefly, the SILAC method involves growing two populations of cells in cell culture. The first population of cells is grown in growth media containing normal amino acids (“normal media”). The second population of cells is grown in media lacking a standard essential amino acid (such as lysine), but is then supplemented with a non-radioactive, isotopically labeled form of that essential amino acid (such as lysine labeled with ^13C atoms, rather than normal ^12C atoms), which is called “heavy media”. When the two populations of cells are each growing in the medium, they incorporate the amino acids into all of their proteins. The growth of cells maintained in the heavy media is no different from that in normal media. All peptides containing the heavy amino acids are heavier than their normal counterparts. The cells from each of the two populations of cells are lysed. The lysates from each of the two cell populations are then combined. The combined cell lysates are then analyzed by mass spectrometry. Pairs of chemically identical peptides of different stable isotope composition can be differentiated in a mass spectrometer due to their difference in mass. The ratio of peak intensities in the mass spectrum for such peptide pairs reflects the abundance ratio for the two proteins.
# This example describes SILAC studies that were performed to compare the effects of three different HDAC inhibitors (Compound A, Compound B, and tubastatin A) to a control on a human multiple myeloma cell line. The HDAC inhibitors were also compared amongst themselves to determine differences in their effects.
# A human myeloma cell line MM.1S was grown using either ^12C (light) or ^13C (heavy) lysine containing culture medium. The “heavy” cells were treated with DMSO as the control, and the “light” cells were treated with a single HDAC inhibitor at 37° C. for 6 hours. The heavy and light cells were lysed, and the lysates were mixed in 1:1 ratio and digested with the protease trypsin. The acetylated lysine containing peptides (due to the action of the HDAC inhibitor) in the digested peptide pool were captured by a non-specific anti-acetylated lysine antibody cocktail (the antibodies identify both light and heavy acetylated peptides), and subjected to mass spectrometry analysis in order to identify thousands of individual peptides.
# Thousands of peptides were identified in pairs (^12C and ^13C) due to their known mass differences. The amino acid sequence and quantitative ratio (Light/Heavy) of a given peptide in two differentially treated cell lysates were then determined and annotated with their possible protein (gene) sources.
# As stated above, three HDAC inhibitors (Compound A, Compound B, and Tubastatin A) were used. Thus, the SILAC method was performed three times, with a different HDAC inhibitor compared to a control each time. Accordingly, there are three pairs of quantitative data in the table below, i.e., Compound A:DMSO, Compound B:DMSO, and Tubastatin A:DMSO. A cut-off of 1.30 fold of change (increase or decrease) was then used to determine “changed” or “+” in the table, and any peptides with a fold of change less than 1.3 fold were determined to be “unchanged” or “0” in the table. Those peptides that were not identified were marked as “NA” in the table. […]
smiles,measurement,setting,value
"O=C(CCCCCCNC(=O)c1cnc(N(c2ccccc2)c2ccccc2)nc1)NO [Compound A, 2-(diphenylamino)-N-(7-(hydroxyamino)-7-oxoheptyl)pyrimidine-5-carboxamide]",light to heavy ratio (L/H ratio) of acetylated peptide MTDK(ac)CFR (SEQ ID NO: 573),"Mitochondrial import inner membrane translocase subunit Tim13 [45], gene TIMM13, inhibitor:DMSO",0.42 log 2
same,"light to heavy ratio (L/H ratio), log 2 scale, acetylated peptide YVK(ac)ALFR (SEQ ID NO: 771)","Mitochondrial import receptor subunit TOM70 [188], gene TOMM70A, drug:DMSO",0.99
same,light to heavy ratio (L/H ratio) of acetylated peptide (ac)AEPVSPLK(ac)HFVLAK (SEQ ID NO: 508),"Mitochondrial transmembrane GTPase FZO-2 [37], gene MFN1, inhibitor:DMSO",−0.63 log 2
same,light to heavy ratio (L/H ratio) of acetylated peptide LSLLSK(ac)FR (SEQ ID NO: 564),"Mitochondrial trifunctional protein beta subunit (Fragment) [100], gene HADHB, inhibitor:DMSO",0.41 log 2
same,light to heavy ratio (L/H ratio) of acetylated peptide EIFQNEK(ac)R (SEQ ID NO: 288),"NAD(P) transhydrogenase mitochondrial [70], NNT, drug:DMSO",0.64 log 2
same,light to heavy ratio (L/H ratio) of acetylated peptide AISPDK(ac)DNFYFDVK (SEQ ID NO: 284),"NAD(P) transhydrogenase mitochondrial [403], NNT, drug:DMSO",0.61 log 2
same,L/H ratio of acetylated peptide,"NK(ac)WFFQK (SEQ ID NO: 498), 60S ribosomal protein L27 [128], RPL27",−0.86 log 2
same,L/H ratio of acetylated peptide,"NK(ac)YGDAFIR (SEQ ID NO: 496), U6 snRNA-associated Sm-like protein LSm6 [59], LSM6",−0.93 log 2
same,L/H ratio of acetylated peptide ADKDYHFK(ac)[…] (SEQ ID NO: 61),"NPM1 [32], log 2 scale, drug vs DMSO",0.00
same,L/H ratio of acetylated peptide FINYVK(ac)NCFR (SEQ ID NO: 62),"NPM1 [244], log 2 scale, drug vs DMSO",0.00
same,L/H ratio of acetylated peptide GVTQFGNK(ac)[…] (SEQ ID NO: 18),"NUDT21 [23], log 2 scale, drug vs DMSO",1.00
same,light to heavy ratio (L/H ratio) of acetylated peptide FCLSK(ac)PGVYK (SEQ ID NO: 345),"Nodal modulator 1 [630], NOMO3, NOMO1, drug:DMSO",0.00 log 2
same,light to heavy ratio (L/H ratio) of acetylated peptide […](ac)R (SEQ ID NO: 532),"Nucleosome assembly protein 1-like 1 [116], gene NAP1L1, inhibitor:DMSO",−0.41 log 2
same,L/H ratio of acetylated peptide SGVGNVFIK(ac)NLDK (SEQ ID NO: 63),"PABPC4 [104], log 2 scale, drug vs DMSO",0.00
same,L/H ratio of acetylated peptide […](ac)IFR (SEQ ID NO: 66),"PDIA3 [104], log 2 scale, drug vs DMSO",0.00
same,L/H ratio of acetylated peptide PSHLTNK(ac)FEDK (SEQ ID NO: 65),"PDIA3 [214], log 2 scale, drug vs DMSO",0.00
same,L/H ratio of acetylated peptide GEK(ac)FVMQEEFSR (SEQ ID NO: 64),"PDIA3 [335], log 2 scale, drug vs DMSO",0.00
same,L/H ratio of acetylated peptide SLLGK(ac)DVLFLK (SEQ ID NO: 67),"PGK1 [91], log 2 scale, drug vs DMSO",0.00
same,"light to heavy ratio (L/H ratio) of acetylated peptide, log 2 scale","PLISVYSEK(ac)GESSGK (SEQ ID NO: 247), 60S ribosomal protein L4 [14], RPL4",−0.54
same,L/H ratio of acetylated peptide SIYGEK(ac)FEDENFILK (SEQ ID NO: 68),"PPIA [82], log 2 scale, drug vs DMSO",0.00
same,L/H ratio of acetylated peptide VIFGLFGK(ac)TVPK (SEQ ID NO: 70),"PPIB [67], log 2 scale, drug vs DMSO",0.00
same,L/H ratio of acetylated peptide TVPK(ac)[…] (SEQ ID NO: 69),"PPIB [71], log 2 scale, drug vs DMSO",0.00
same,L/H ratio of acetylated peptide VIK(ac)[…] (SEQ ID NO: 71),"PPIB [98], log 2 scale, drug vs DMSO",0.00
same,L/H ratio of acetylated peptide IYGFYDECK(ac)R (SEQ ID NO: 72),"PPP1CC [141], log 2 scale, drug vs DMSO",0.00
same,light to heavy ratio (L/H ratio) of acetylated peptide TAWLDGK(ac)HVVFGK (SEQ ID NO: 592),"Peptidyl-prolyl cis-trans isomerase B [165], gene PPIB, inhibitor:DMSO",0.44 log 2
same,light to heavy ratio (L/H ratio) of acetylated peptide FPDENFK(ac)LK (SEQ ID NO: 347),"Peptidyl-prolyl cis-trans isomerase C [123], PPIC, drug:DMSO",0.00 log 2
same,light to heavy ratio (L/H ratio) of acetylated peptide HVVFGK(ac)VK (SEQ ID NO: 576),"Peptidylprolyl isomerase A (Cyclophilin A) (PPIA) pseudogene [141], gene PPIAP26, inhibitor:DMSO",0.42 log 2
same,light to heavy ratio (L/H ratio) of acetylated peptide LAK(ac)YFFNK (SEQ ID NO: 604),"Periodic tryptophan protein 2 homolog [279], gene PWP2, inhibitor:DMSO",0.46 log 2
same,light to heavy ratio (L/H ratio) of acetylated peptide AAWEHMK(ac)K (SEQ ID NO: 551),"Peroxisomal multifunctional enzyme type 2 [139], gene HSD17B4, inhibitor:DMSO",0.39 log 2
same,light to heavy ratio (L/H ratio) of acetylated peptide FAK(ac)[…] (SEQ ID NO: 557),"Peroxisomal multifunctional enzyme type 2 [565], gene HSD17B4, inhibitor:DMSO",0.40 log 2
same,light to heavy ratio (L/H ratio) of acetylated peptide […](ac)EALKK (SEQ ID NO: 619),"Poly [ADP-ribose] polymerase 1 [192], gene PARP1, inhibitor:DMSO",0.48 log 2
same,light to heavy ratio (L/H ratio) of acetylated peptide […](ac)DELKK (SEQ ID NO: 346),"Poly [ADP-ribose] polymerase 1 [249], PARP1, drug:DMSO",0.00 log 2
same,light to heavy ratio (L/H ratio) of acetylated peptide […](ac)NVLK (SEQ ID NO: 527),"Pre-mRNA-processing-splicing factor 8 [2108], gene PRPF8, inhibitor:DMSO",−0.44 log 2
same,light to heavy ratio (L/H ratio) of acetylated peptide ALK(ac)YLVMDEADR (SEQ ID NO: 513),"Probable ATP-dependent RNA helicase DDX47 [169], gene DDX47, inhibitor:DMSO",−0.58 log 2
same,light to heavy ratio (L/H ratio) of acetylated peptide (ac)AAK(ac)VFESIGK (SEQ ID NO: 277),"Prohibitin [4], PHB, drug:DMSO",0.54 log 2
